Measured values as given in patent publication US4103082A, “Aminocyclitol derivatives and process for producing the same” (priority 1975, dated 1978).
In brackets after ≈: the same amount, converted by molar mass.

Key:
[1] = tested on: Enterococcus species C73-17; test: antibacterial activity (Minimum Inhibitory Concentration); assay type: cell-based; settings: C7317; Enterococcus species C73-17; read-out: MIC
Pseudomonas 1007 = test: paper disk method, inhibitory zone diameter; assay type: cell-based; settings: Pseudomonas, 1007; 2000 γ/ml; read-out: inhibitory zone diameter
[2] = tested on: Staphylococcus aureus No. 26; test: antibacterial activity (Minimum Inhibitory Concentration); assay type: cell-based; settings: Staphylococcus aureus No. 26; read-out: MIC
Klebsiella 6 = test: paper disk method, inhibitory zone diameter; assay type: cell-based; settings: Klebsiella, 6
[3] = tested on: Staphylococcus albus PCI-1200A; test: antibacterial activity (Minimum Inhibitory Concentration); assay type: cell-based; settings: PCI1200A; Staphylococcus albus PCI-1200A; read-out: MIC
[4] = tested on: Bacillus subtilis ATCC 6633; test: paper disk method, inhibitory zone diameter; assay type: cell-based; settings: read-out: inhibitory zone diameter
[5] = tested on: Staphylococcus aureus C73-21; test: antibacterial activity (Minimum Inhibitory Concentration); assay type: cell-based; settings: C7321; Staphylococcus aureus C73-21; read-out: MIC
E. coli C73-12 = test: as above; assay type: cell-based; settings: Escherichia coli, C7312
[6] = tested on: Staphylococcus aureus Smith S-424; test: as above; assay type: cell-based; settings: SMITHS424; Staphylococcus aureus Smith S-424; read-out: MIC
Klebsiella pneumoniae = test: as above; assay type: cell-based; settings: read-out: MIC
Proteus species C73-25 = test: as above; assay type: cell-based; settings: Proteus species C73-25; read-out: MIC
[7] = tested on: Enterococcus species C73-33; test: as above; assay type: cell-based; settings: C7333; Enterococcus species C73-33; read-out: MIC
[8] = tested on: Vibrio parahaemolyticus K-3; test: as above; assay type: cell-based; settings: K3; Vibrio parahaemolyticus K-3; read-out: MIC
[9] = tested on: Shigella dysenteriae Shigae; test: microbe, parasite or virus in culture; assay type: cell-based
male ICR mice = test: acute toxicity; settings: intravenous administration, 200 mg/kg
E. coli C73-4 = test: antibacterial activity (Minimum Inhibitory Concentration); assay type: cell-based; settings: Escherichia coli, C734; E. coli C73-4; read-out: MIC
[10] = tested on: Staphylococcus aureus C73-10; test: as above; assay type: cell-based; settings: C7310; Staphylococcus aureus C73-10; read-out: MIC
E. coli C73-1 = test: as above; assay type: cell-based; settings: Escherichia coli, C731; E. coli C73-1; read-out: MIC
[11] = tested on: Staphylococcus aureus C73-4; test: as above; assay type: cell-based; settings: C734; Staphylococcus aureus C73-4; read-out: MIC
Mycobacterium 607 = test: paper disk method, inhibitory zone diameter; assay type: cell-based; settings: Mycobacterium, 607, read-out: inhibitory zone diameter
E. coli K-12 = test: paper disk method, inhibitory zone diameter; assay type: cell-based; settings: Escherichia coli, K12, read-out: inhibitory zone diameter
Proteus species C73-33 = test: antibacterial activity (Minimum Inhibitory Concentration); assay type: cell-based; settings: Proteus species C73-33; read-out: MIC
Klebsiella 7 = test: paper disk method, inhibitory zone diameter; assay type: cell-based; settings: Klebsiella, 7
[12] = tested on: Bacillus subtilis ATCC 6633; test: antibacterial activity (Minimum Inhibitory Concentration); assay type: cell-based; settings: ATCC6633; Bacillus subtilis ATCC 6633; read-out: MIC
[13] = tested on: Staphylococcus aureus 209P JC-1; test: as above; assay type: cell-based; settings: Staphylococcus aureus 209P JC-1; read-out: MIC
[14] = tested on: Vibrio parahaemolyticus K-5; test: as above; assay type: cell-based; settings: K5; Vibrio parahaemolyticus K-5; read-out: MIC
[15] = tested on: Vibrio parahaemolyticus K-7; test: as above; assay type: cell-based; settings: K7; Vibrio parahaemolyticus K-7; read-out: MIC
Proteus morganii Kono = test: as above; assay type: cell-based; settings: Morganella morganii
microorganisms indicated = test: antimicrobial activities, paper disk method (general statement); assay type: cell-based; settings: Tables 1 to 4
Experimental: The inhibitory activities were determined at various concentrations of the compounds using the paper disk method against the microorganisms indicated and the numerical values show the inhibitory zone diameter in terms of mm.

[16] = tested on: Bacillus anthracis No. 119; test: microbe, parasite or virus in culture; assay type: cell-based
[17] = tested on: Salmonella species C73-30; test: antibacterial activity (Minimum Inhibitory Concentration); assay type: cell-based; settings: C7330
[18] = tested on: E. coli HL-1629 (Kanamycin-resistant strain); test: microbe, parasite or virus in culture; assay type: cell-based; settings: Escherichia coli, read-out: inhibitory zone diameter
Proteus species C73-34 = test: antibacterial activity (Minimum Inhibitory Concentration); assay type: cell-based; settings: Proteus species C73-34; read-out: MIC
Proteus species C73-23 = test: as above; assay type: cell-based; settings: Proteus species C73-23; read-out: MIC
[19] = 2000 γ/ml, read-out: inhibitory zone diameter

## NC[C@H]1O[C@H](O[C@H]2[C@H](O)C[C@H](N)C[C@@H]2N)[C@H](N)[C@@H](O)[C@@H]1O [6-Deoxyneamine, 6-deoxyneamine]
[1]
  MIC: 50 µg/mL (≈ 163 µM)
Pseudomonas 1007
  zone of inhibition at 2000 µg/mL: 0 mm
[2]
  MIC: 6.25 µg/mL (≈ 20.4 µM)
Klebsiella 6; 250 γ/ml
  zone of inhibition at 250 µg/mL: 0 mm
Klebsiella 6; 500 γ/ml
  zone of inhibition at 500 µg/mL: 11.1 mm
Klebsiella 6; 1000 γ/ml
  zone of inhibition at 1000 µg/mL: 14.1 mm
Klebsiella 6; [19]
  zone of inhibition at 2000 µg/mL: 16.4 mm
[3]
  MIC: 3.13 µg/mL (≈ 10.2 µM)
[4]; ATCC6633, 7.8 γ/ml
  zone of inhibition at 7.8 µg/mL: 15 mm
[4]; ATCC6633, 15.6 γ/ml
  zone of inhibition at 15.6 µg/mL: 17.6 mm
[4]; ATCC6633, 31.2 γ/ml
  zone of inhibition at 31.2 µg/mL: 21.1 mm
[4]; ATCC6633, 62.5 γ/ml
  zone of inhibition at 62.5 µg/mL: 22.7 mm
[4]; ATCC6633, 125 γ/ml
  zone of inhibition at 125 µg/mL: 25.6 mm
[4]; ATCC6633, 250 γ/ml
  zone of inhibition at 250 µg/mL: 28.2 mm
[4]; ATCC6633, 500 γ/ml
  zone of inhibition at 500 µg/mL: 31.2 mm
[4]; ATCC6633, 1000 γ/ml
  zone of inhibition at 1000 µg/mL: 33.2 mm
[4]; ATCC6633, 2000 γ/ml
  zone of inhibition at 2000 µg/mL: 35.7 mm
[5]
  MIC: 1.56 µg/mL (≈ 5.09 µM)
E. coli C73-12
  MIC: 12.5 µg/mL (≈ 40.8 µM)
[6]
  MIC: 3.13 µg/mL (≈ 10.2 µM)
Klebsiella pneumoniae
  MIC: 25 µg/mL (≈ 81.6 µM)
Proteus species C73-25
  MIC: 6.25 µg/mL (≈ 20.4 µM)
[7]
  MIC: 25 µg/mL (≈ 81.6 µM)
[8]
  MIC: 1.56 µg/mL (≈ 5.09 µM)
[9]
  MIC: 12.5 µg/mL (≈ 40.8 µM)
Male ICR mice
  acute toxicity, survival: all male ICR mice were survived
E. coli C73-4
  MIC: 25 µg/mL (≈ 81.6 µM)
[10]
  MIC: 6.25 µg/mL (≈ 20.4 µM)
E. coli C73-1
  MIC: 25 µg/mL (≈ 81.6 µM)
[11]
  MIC: 6.25 µg/mL (≈ 20.4 µM)
Mycobacterium 607; 62.5 γ/ml
  zone of inhibition at 62.5 µg/mL: 0 mm
Mycobacterium 607; 125 γ/ml
  zone of inhibition at 125 µg/mL: 11 mm
Mycobacterium 607; 250 γ/ml
  zone of inhibition at 250 µg/mL: 16.2 mm
Mycobacterium 607; 500 γ/ml
  zone of inhibition at 500 µg/mL: 21.7 mm
Mycobacterium 607; 1000 γ/ml
  zone of inhibition at 1000 µg/mL: 28.3 mm
Mycobacterium 607; 2000 γ/ml
  zone of inhibition at 2000 µg/mL: 33.6 mm
E. coli K-12; 7.8 γ/ml
  zone of inhibition at 7.8 µg/mL: 0 mm
E. coli K-12; 15.6 γ/ml
  zone of inhibition at 15.6 µg/mL: 11.2 mm
E. coli K-12; 31.2 γ/ml
  zone of inhibition at 31.2 µg/mL: 12.9 mm
E. coli K-12; 62.5 γ/ml
  zone of inhibition at 62.5 µg/mL: 16 mm
E. coli K-12; 125 γ/ml
  zone of inhibition at 125 µg/mL: 18.2 mm
E. coli K-12; 250 γ/ml
  zone of inhibition at 250 µg/mL: 20.3 mm
E. coli K-12; 500 γ/ml
  zone of inhibition at 500 µg/mL: 21.9 mm
E. coli K-12; 1000 γ/ml
  zone of inhibition at 1000 µg/mL: 25 mm
E. coli K-12; 2000 γ/ml
  zone of inhibition at 2000 µg/mL: 26.7 mm
Proteus species C73-33
  MIC: 100 µg/mL (≈ 326 µM)
Klebsiella 7; 250 γ/ml
  zone of inhibition at 250 µg/mL: 0 mm
Klebsiella 7; 500 γ/ml
  zone of inhibition at 500 µg/mL: 11.2 mm
Klebsiella 7; 1000 γ/ml
  zone of inhibition at 1000 µg/mL: 15.6 mm
Klebsiella 7; [19]
  zone of inhibition at 2000 µg/mL: 17.5 mm
[12]
  MIC: 0.78 µg/mL (≈ 2.55 µM)
[13]
  MIC: 1.56 µg/mL (≈ 5.09 µM)
[14]
  MIC: 25 µg/mL (≈ 81.6 µM)
[15]
  MIC: 25 µg/mL (≈ 81.6 µM)
Proteus morganii Kono
  MIC: 12.5 µg/mL (≈ 40.8 µM)
Microorganisms indicated
  antimicrobial activities relative to neamine: superior to those of the parent compound neamine
[16]
  MIC: 12.5 µg/mL (≈ 40.8 µM)
[17]
  MIC: 50 µg/mL (≈ 163 µM)
[18]
  zone of inhibition at 500 µg/mL: 0 mm
  zone of inhibition at 1000 µg/mL: 12.5 mm
  zone of inhibition at 2000 µg/mL: 18 mm
Proteus species C73-34
  MIC: 25 µg/mL (≈ 81.6 µM)
Proteus species C73-23
  MIC: 25 µg/mL (≈ 81.6 µM)
